Source: publication PMC9532755, “Impact of lactisole on the time-intensity profile of selected sweeteners in dependence of the binding site” (Food Chemistry: X, 2022)

Tested on: perceived sweet intensity (panelists)
Test: Sensory time-intensity (TI) measurement of sweetness by a trained panel
Assay type: in vivo, human
Settings: for AUC of time-intensity curve / lingering (intensity at 90 sec) / onset (time-point of first maximum intensity) / max. int. (maximum sweet intensity): lactisole alone, mean ± SEM; for AUC of time-intensity curve: 180 sec evaluation; for max. int. (maximum sweet intensity): unstructured scale 0-100
From the text: All panelists gave their written informed consent for participating in the panel and had to complete a sensory training. […] On a last training day, the evaluation on unstructured scales and the time-dependent evaluation on the computer were trained. All panelists reported to be in good general health condition, and not being under medication or pregnant. At least one hour before every training or tasting, panelists were instructed not to smoke and not to consume intense tasting food or beverage (e.g. coffee, chili, garlic, chewing gum) and to avoid in general strong hunger or fullness as well as strong odors or perfume on test days.
Every test solution was assessed randomly at two different test days with at least 8 panelists participating per replicate. The panelists were free to choose to participate at the different test days. A maximum of five test compounds were assessed in one session. All samples were coded with three-digit random code and presented to the panelists in randomized order. On each test day, panelists were presented five sweet solutions with 0, 25, 50, 100 and 200 g/L sucrose as a scale training for the ratings from “not at all” to “very intensive” sweetness. […] The three minutes of evaluation were chosen to capture as much of the lingering as possible without wearing out the panelists during the evaluation. A total of 350 measuring time points was recorded within the pre-set time frame, especially to see differences in the first seconds of evaluation, which are important for the onset. The panelists were asked to take the sample (20 mL) into their mouth, while starting the timer and simultaneously the evaluation of sweet intensity over the time, and to spit out the sample after ten seconds while continuing the evaluation of the sweetness intensity until the end of the three minutes.
For comparison of the time-dependent properties, the following descriptors were used: the maximum intensity at the first 30 sec of evaluation as “max. intensity”, the time-point of the first maximum intensity as “onset” in sec, […], and the area under the curve from the time-intensity plots as “AUC” as a marker for the overall intensity and duration.
All sensory experiments were conducted at the Christian Doppler Laboratory for Taste Research at the Institute for Physiological Chemistry, University of Vienna, Austria, at room temperature (21 – 23 °C). • Calcium mobilization assay
The statistical analysis and graphical representation were performed with GraphPad Prism 9.0 for sensory results and with SigmaPlot 14.0 for cell experiments. To evaluate the sensory dose–response effects of ascending sweetener concentration w/o lactisole, an asymmetrical five-parameter curve (Richard́s five-parameter dose–response curve) was fitted. The data are presented as means ± SEM from at least 16 single evaluations. Statistical significance between the different test compounds and concentration-dependent effects was assessed by two-way ANOVAs with Tukey post hoc test using Graph Pad Prism. The normal distribution of the data sets was checked by evaluation of the kurtosis (between −7 to + 7) and the skewness (between −3 to + 3). Equal variance was tested using Levenés test. In case the assumptions of a normal distribution and equal variance were not met, the non-parametric ANOVA on ranks (Kruskal-Wallis Test) with Dunn's post-hoc test without the calculation of interaction was applied. A Pearson product moment correlation was conducted to investigate relationships between sensory results and cell responses of the tested sweeteners.

In the case of `COc1ccc(OC(C)C(=O)O)cc1` (stereo not drawn) [lactisole, sodium 2-(4-methoxyphenoxy) propanoate], the “time after which a sweet perception (sweet aftertaste) was reported” value (lactisole 0.46 mM and 0.92 mM, sip-and-spit, spit out after ten seconds) was “around 30 sec”, the “AUC of time-intensity curve” value (0.46 mM) was 4285 ± 926 and the “lingering (intensity at 90 sec)” value (0.46 mM) was 16.96 ± 3.9. The “onset (time-point of first maximum intensity)” value (0.46 mM) was 106.0 ± 19.8 s, the “max. int. (maximum sweet intensity)” value (0.46 mM) was 23.3 ± 4.0 and the “AUC of time-intensity curve” value (0.92 mM) was 5990 ± 1122. The “lingering (intensity at 90 sec)” value (0.92 mM) was 21.12 ± 3.8, the “onset (time-point of first maximum intensity)” value (0.92 mM) was 144.9 ± 21.9 s and the “max. int. (maximum sweet intensity)” value (0.92 mM) was 29.8 ± 4.2.
